# System: secreted mouse PGRN
# Test: progranulin induction cellular assay (PGRN assay, ELISA-based readout)
# Conditions: progranulin secreted into cell culture medium, cells named in method: mouse primary microglia, primary cortical neurons, BV-2
# Procedure: Cellular Assays: To measure the efficacy of compounds, a progranulin induction cellular assay in mouse primary microglia (pMG), primary cortical neurons, and BV-2 cell lines is used. BV-2 cells are split the day before plating into a 96well plate format at approximately 80%. Cells should be plated the day before and allowed for 1 hour attachment period and for 16 hour incubation. Levels of progranulin secreted into the cell culture medium or retained in the cell lysate can be quantified using an ELISA-based readout and measurement of secreted mouse PGRN in the medium was assessed by the methodology published by Ghidoni et al. 2012. Standard ELISA kits to measure PGRN are available from vendors such as Adipogen, R&D, and Biovendor.
# Table D below presents the results of a PGRN assay as described above.
EC50 (Mus musculus) [nM],SMILES,EC50 [nM]
3430,CN1CCC[C@@]2(CN=C(N3CCc4ccccc4[C@H]3c3ccc(F)c(F)c3)O2)C1 (stereo in doubt) [Compound 3032],–
> 10000,"CN1CCC[C@]2(CN=C(N3CCc4ccccc4[C@H]3c3cccc(F)c3)O2)C1 (single isomer, unassigned) [Compound 3008]",–
406,"CN1CCC[C@H]([C@@H]2CN=C(N3CCc4ccccc4[C@@H]3c3ccc(F)cc3)O2)C1 (single isomer, unassigned) [Compound 3152]",–
> 10000,"Fc1ccc([C@H]2c3ccccc3CCN2C2=NC[C@H]([C@H]3CCCNC3)O2)cc1 (single isomer, unassigned) [Compound 3076]",–
1040,"Fc1ccc([C@H]2c3ccccc3CCN2C2=NC[C@]3(CCN(CCC(F)(F)F)C3)O2)cc1 [Compound 3173, (R)-2-((S)-1-(4-fluorophenyl)-3,4-dihydroisoquinolin-2(1H)-yl)-7-(3,3,3-trifluoropropyl)-1-oxa-3,7-diazaspiro[4.4]non-2-ene]",–
6390,"CN1CCC[C@]2(CN=C(N3CCc4ccccc4[C@@H]3c3cc(F)cc(F)c3)O2)C1 (single isomer, unassigned) [Compound 3010]",–
338,"Fc1ccc([C@H]2c3ccccc3CCN2C2=N[C@@H]([C@@H]3CCNC3)CO2)cc1 (single isomer, unassigned) [Compound 3074]",–
249,"O[C@H]1CNC[C@@]12CN=C(N1CCc3ccccc3[C@@H]1c1ccc(F)cc1)O2 [Compound 3178, (5R,9S)-2-((S)-1-(4-fluorophenyl)-3,4-dihydroisoquinolin-2(1H)-yl)-1-oxa-3,7-diazaspiro[4.4]non-2-en-9-ol]",–
9650,CN1CCC[C@@]2(CN=C(N3CCc4ccccc4[C@@H]3c3ccc(F)c(F)c3)O2)C1 (stereo in doubt) [Compound 3030],–
206,"NC[C@H]1C[C@]2(CN=C(N3CCc4ccccc4[C@@H]3c3ccc(F)cc3)O2)C1 (single isomer, unassigned) [Compound 3161]",–
1680,"CN1CCC[C@]2(CN=C(N3CCc4ccccc4[C@@H]3c3ccc(F)cc3F)O2)C1 (single isomer, unassigned) [Compound 3014]",–
993,"NC[C@H]1C[C@@]2(CN=C(N3CCc4ccccc4[C@@H]3c3ccc(F)cc3)O2)C1 (single isomer, unassigned) [Compound 3160]",–
109,"Fc1ccc([C@H]2c3ccccc3CCN2C2=NCC(C3CNC3)O2)cc1 (single isomer, unassigned) [Compound 3069]",–
50.1,O=C1N[C@]2(CCCNC2)N=C1N1CCc2ccccc2[C@@H]1c1ccc(F)cc1 [Compound 3147],–
55,"Fc1ccc([C@H]2c3ccccc3CCN2C2=NC[C@@H]([C@@H]3CCNC3)O2)cc1 (single isomer, unassigned) [Compound 3066]",–
250,"Fc1ccc([C@H]2c3ccccc3CCN2C2=N[C@]3(CCCNC3)CO2)cc1 (single isomer, unassigned) [Compound 3053]",–
4280,"CN1CCC[C@@]2(CN=C(N3CCc4ccccc4[C@@H]3c3cc(F)c(F)c(F)c3)O2)C1 (single isomer, unassigned) [Compound 3003]",–
318,"OCCCN1CC[C@@]2(CN=C(N3CCc4ccccc4[C@@H]3c3ccc(F)cc3)O2)C1 [Compound 3176, 3-((S)-2-((S)-1-(4-fluorophenyl)-3,4-dihydroisoquinolin-2(1H)-yl)-1-oxa-3,7-diazaspiro[4.4]non-2-en-7-yl)propan-1-ol]",–
612,"Fc1ccc([C@H]2c3ccccc3CCN2C2=N[C@@H](C3CCNCC3)CO2)cc1 (single isomer, unassigned) [Compound 3133]",–

# The next lines start with the molecule.
SMILES,EC50 (Mus musculus) [nM],EC50 [nM]
"Fc1cccc([C@H]2c3ccccc3CCN2C2=NC[C@]3(CN4CCC3CC4)O2)c1F (single isomer, unassigned) [Compound 3019]",300,–
Fc1cc(F)cc([C@H]2c3ccccc3CCN2C2=NC[C@@]3(CN4CCC3CC4)O2)c1 (racemic) [Compound 3036],3750,–
"CN1CCC[C@]2(CN=C(N3CCc4ccccc4[C@@H]3c3cc(F)c(F)c(F)c3)O2)C1 (single isomer, unassigned) [Compound 3004]",–,> 10000
"Fc1ccc([C@H]2c3ccccc3CCN2C2=NC[C@]3(CN4CCC3CC4)O2)c(F)c1 (single isomer, unassigned) [Compound 3017]",260,–
"CN1CCC[C@]2(CN=C(N3CCc4ccccc4[C@@H]3c3cc(F)c(F)c(F)c3)O2)C1 (single isomer, unassigned) [Compound 3002]",5080,–
"CN1CC[C@@]2(CN=C(N3CCc4ccccc4[C@@H]3c3ccc(F)cc3)O2)C1 [Compound 3167, (S)-2-((S)-1-(4-fluorophenyl)-3,4-dihydroisoquinolin-2(1H)-yl)-7-methyl-1-oxa-3,7-diazaspiro[4.4]non-2-ene]",176,–
Fc1ccc([C@H]2c3ccccc3CCN2C2=NC[C@@H](C3CCNCC3)O2)cc1 [Compound 3067],309,–
"CN1CCC[C@@]2(CN=C(N3CCc4ccccc4[C@@H]3c3cc(F)cc(F)c3)O2)C1 (single isomer, unassigned) [Compound 3011]",7640,–
"c1ccc([C@H]2c3ccccc3CCN2C2=NC[C@]3(CN4CCC3CC4)O2)cc1 (single isomer, unassigned) [Compound 3040]",1130,–
"CN1CCC[C@@]2(CN=C(N3CCc4ccccc4[C@H]3c3cc(F)c(F)c(F)c3)O2)C1 (single isomer, unassigned) [Compound 3005]",> 10000,–
"Fc1ccc([C@H]2c3ccccc3CCN2C2=NC[C@@]3(CCN(CC(F)(F)F)C3)O2)cc1 [Compound 3172, (S)-2-((S)-1-(4-fluorophenyl)-3,4-dihydroisoquinolin-2(1H)-yl)-7-(2,2,2-trifluoroethyl)-1-oxa-3,7-diazaspiro[4.4]non-2-ene]",1520,–
"Fc1ccc([C@H]2c3ccccc3CCN2C2=NCC3(CNCCC3F)O2)cc1 (stereo partly drawn) [Compound 3035, 10-fluoro-2-((S)-1-(4-fluorophenyl)-3,4-dihydroisoquinolin-2(1H)-yl)-1-oxa-3,7-diazaspiro[4.5]dec-2-ene]",620,–
"Fc1ccc([C@H]2c3ccccc3CCN2C2=NC[C@@]3(CN4CCC3CC4)O2)cc1 (single isomer, unassigned) [Compound 3001]",100,–
CN1CCC[C@]2(CN=C(N3CCc4ccccc4[C@@H]3c3cccc(F)c3F)O2)C1 (stereo in doubt) [Compound 3043],3860,–
"Fc1ccc([C@H]2c3ccccc3CCN2C2=NC[C@@]3(CNC[C@@H]3F)O2)cc1 (single isomer, unassigned) [Compound 3170]",538,–
N[C@H]1C[C@@]2(COC(N3CCc4ccccc4[C@@H]3c3ccc(F)cc3)=N2)C1 [Compound 3162],639,–
Fc1cc(F)cc([C@@H]2c3ccccc3CCN2C2=NC[C@@]3(CN4CCC3CC4)O2)c1 (stereo in doubt) [Compound 3038],3910,–
Fc1cc(F)cc([C@H]2c3ccccc3CCN2C2=NC[C@]3(CN4CCC3CC4)O2)c1 (stereo in doubt) [Compound 3039],–,1050
Fc1ccc([C@H]2c3ccccc3CCN2C2=NC[C@@]3(CCNC3)O2)cc1 [Compound 3049],19,–
Fc1cccc([C@H]2c3ccccc3CCN2C2=NC[C@@]3(CN4CCC3CC4)O2)c1 (stereo in doubt) [Compound 3020],9980,–
